Assay results from ChEMBL document CHEMBL1255313 (Antimicrob Agents Chemother, 2008).

Key:
[1] = test system: Homo sapiens; assay: AUC (0 to infinity) in healthy human plasma assessed as hydroxybupropion level at 150 mg, po co-treated with ritonavir 200 mg tid for 1 day, 300 mg bid for next 2 days measured after 48 hrs; format: ADME, organism-based; design: dose 150 mg, time infinity, route oral; conditions: in vivo
[2] = test system: Homo sapiens; assay: AUC (0 to infinity) in healthy human plasma assessed as hydroxybupropion level at 150 mg, po co-treated with ritonavir 200 mg tid for 1 day, 300 mg bid for next 6 days, 400 mg bid upto 17 day of study measured after 48 hrs; format: ADME, organism-based; design: dose 150 mg, route oral, time infinity; conditions: in vivo
[3] = test system: Homo sapiens; assay: Tmax in healthy human plasma assessed as hydroxybupropion level at 150 mg, po co-treated with ritonavir 200 mg tid for 1 day, 300 mg bid for next 2 days measured after 48 hrs; format: ADME, organism-based; conditions: in vivo
[4] = test system: Homo sapiens; assay: Tmax in healthy human plasma assessed as hydroxybupropion level at 150 mg, po co-treated with ritonavir 200 mg tid for 1 day, 300 mg bid for next 6 days, 400 mg bid upto 17 day of study measured after 48 hrs; format: ADME, organism-based; conditions: in vivo
[5] = test system: Homo sapiens; assay: AUC (0 to 72) in healthy human plasma assessed as hydroxybupropion level at 150 mg, po co-treated with ritonavir 200 mg tid for 1 day, 300 mg bid for next 2 days measured after 48 hrs; format: ADME, organism-based; design: time < 72 hr, dose 150 mg, route oral; conditions: in vivo, 72 h
[6] = test system: Homo sapiens; assay: AUC (0 to 72) in healthy human plasma assessed as hydroxybupropion level at 150 mg, po co-treated with ritonavir 200 mg tid for 1 day, 300 mg bid for next 6 days, 400 mg bid upto 17 day of study measured after 48 hrs; format: ADME, organism-based; design: dose 150 mg, time < 72 hr, route oral; conditions: in vivo, 72 h
[7] = test system: Homo sapiens; assay: AUC (0 to 72) in healthy human plasma assessed as (R,R)-hydroxybupropion level at 150 mg, po co-treated with ritonavir 200 mg tid for 1 day, 300 mg bid for next 2 days measured after 48 hrs by high-performance liquid chromatography-tandem mass spectrometry; format: ADME, organism-based; design: time < 72 hr, dose 150 mg, route oral; conditions: in vivo, 72 h
[8] = test system: Homo sapiens; assay: AUC (0 to 72) in healthy human plasma assessed as (R,R)-hydroxybupropion level at 150 mg, po co-treated with ritonavir 200 mg tid for 1 day, 300 mg bid for next 6 days, 400 mg bid upto 17 day of study measured after 48 hrs by high-performance liquid chromatography-tandem mass spectrometry; format: ADME, organism-based; design: dose 150 mg, time < 72 hr, route oral; conditions: in vivo, 72 h
[9] = test system: Homo sapiens; assay: AUC (0 to infinity) in healthy human plasma assessed as (R,R)-hydroxybupropion level at 150 mg, po co-treated with ritonavir 200 mg tid for 1 day, 300 mg bid for next 2 days measured after 48 hrs by high-performance liquid chromatography-tandem mass spectrometry; format: ADME, organism-based; design: dose 150 mg, time infinity, route oral; conditions: in vivo
[10] = test system: Homo sapiens; assay: AUC (0 to infinity) in healthy human plasma assessed as (R,R)-hydroxybupropion level at 150 mg, po co-treated with ritonavir 200 mg tid for 1 day, 300 mg bid for next 6 days, 400 mg bid upto 17 day of study measured after 48 hrs by high-performance liquid chromatography-tandem mass spectrometry; format: ADME, organism-based; design: dose 150 mg, time infinity, route oral; conditions: in vivo
[11] = test system: Homo sapiens; assay: Tmax in healthy human plasma assessed as (R,R)-hydroxybupropion level at 150 mg, po co-treated with ritonavir 200 mg tid for 1 day, 300 mg bid for next 2 days measured after 48 hrs by high-performance liquid chromatography-tandem mass spectrometry; format: ADME, organism-based; conditions: in vivo
[12] = test system: Homo sapiens; assay: (§1) Tmax in healthy human plasma assessed as (R,R)-hydroxybupropion level at 150 mg, po co-treated with ritonavir 200 mg tid for 1 day, 300 mg bid for next 6 days, 400 mg bid upto 17 day of study measured after 48 hrs by high-performance liquid chromatography-tandem mass spectrometry; format: ADME, organism-based; conditions: in vivo
[13] = test system: Homo sapiens; assay: AUC (0 to 72) in healthy human plasma assessed as (S,S)-hydroxybupropion level at 150 mg, po co-treated with ritonavir 200 mg tid for 1 day, 300 mg bid for next 2 days measured after 48 hrs by high-performance liquid chromatography-tandem mass spectrometry; format: ADME, organism-based; design: dose 150 mg, time < 72 hr, route oral; conditions: in vivo, 72 h
[14] = test system: Homo sapiens; assay: AUC (0 to 72) in healthy human plasma assessed as (S,S)-hydroxybupropion level at 150 mg, po co-treated with ritonavir 200 mg tid for 1 day, 300 mg bid for next 6 days, 400 mg bid upto 17 day of study measured after 48 hrs by high-performance liquid chromatography-tandem mass spectrometry; format: ADME, organism-based; design: dose 150 mg, time < 72 hr, route oral; conditions: in vivo, 72 h
[15] = test system: Homo sapiens; assay: AUC (0 to infinity) in healthy human plasma assessed as (S,S)-hydroxybupropion level at 150 mg, po co-treated with ritonavir 200 mg tid for 1 day, 300 mg bid for next 2 days measured after 48 hrs by high-performance liquid chromatography-tandem mass spectrometry; format: ADME, organism-based; design: dose 150 mg, time infinity, route oral; conditions: in vivo
[16] = test system: Homo sapiens; assay: AUC (0 to infinity) in healthy human plasma assessed as (S,S)-hydroxybupropion level at 150 mg, po co-treated with ritonavir 200 mg tid for 1 day, 300 mg bid for next 6 days, 400 mg bid upto 17 day of study measured after 48 hrs by high-performance liquid chromatography-tandem mass spectrometry; format: ADME, organism-based; design: dose 150 mg, time infinity, route oral; conditions: in vivo
[17] = AUC in healthy human plasma at 400 mg, po bid for 2 weeks; format: ADME, organism-based
[18] = AUC in healthy human plasma at 100 mg, po bid for 2 weeks; format: ADME, organism-based
[19] = Apparent renal clearance in human at 150 mg, po co-treated with ritonavir 200 mg tid for 1 day, 300 mg bid for next 2 days using 0-48 hrs urine sample; format: ADME, organism-based; conditions: read-out: CL_renal
[20] = Apparent renal clearance in human at 150 mg, po co-treated with ritonavir 200 mg tid for 1 day, 300 mg bid for next 6 days, 400 mg bid upto 17 day of study using 0-48 hrs urine sample; format: ADME, organism-based; conditions: read-out: CL_renal
[21] = test system: Homo sapiens; assay: Apparent renal clearance in human assessed as Hydroxybupropion at 150 mg, po co-treated with ritonavir 200 mg tid for 1 day, 300 mg bid for next 2 days using 0-48 hrs urine sample; format: ADME, organism-based; conditions: in vivo
[22] = test system: Homo sapiens; assay: Apparent renal clearance in human assessed as Hydroxybupropion at 150 mg, po co-treated with ritonavir 200 mg tid for 1 day, 300 mg bid for next 6 days, 400 mg bid upto 17 day of study using 0-48 hrs urine sample; format: ADME, organism-based; conditions: in vivo
[23] = test system: Homo sapiens; assay: Apparent renal clearance in human assessed as (R,R)-Hydroxybupropion at 150 mg, po co-treated with ritonavir 200 mg tid for 1 day, 300 mg bid for next 2 days using 0-48 hrs urine sample by high-performance liquid chromatography-tandem mass spectrometry; format: ADME, organism-based; conditions: in vivo
[24] = test system: Homo sapiens; assay: Apparent renal clearance in human assessed as (R,R)-Hydroxybupropion at 150 mg, po co-treated with ritonavir 200 mg tid for 1 day, 300 mg bid for next 6 days, 400 mg bid upto 17 day of study using 0-48 hrs urine sample by high-performance liquid chromatography-tandem mass spectrometry; format: ADME, organism-based; conditions: in vivo
[25] = test system: Homo sapiens; assay: Apparent renal clearance in human assessed as (S,S)-Hydroxybupropion at 150 mg, po co-treated with ritonavir 200 mg tid for 1 day, 300 mg bid for next 2 days using 0-48 hrs urine sample by high-performance liquid chromatography-tandem mass spectrometry; format: ADME, organism-based; conditions: in vivo
[26] = test system: Homo sapiens; assay: Apparent renal clearance in human assessed as (S,S)-Hydroxybupropion at 150 mg, po co-treated with ritonavir 200 mg tid for 1 day, 300 mg bid for next 6 days, 400 mg bid upto 17 day of study using 0-48 hrs urine sample by high-performance liquid chromatography-tandem mass spectrometry; format: ADME, organism-based; conditions: in vivo
[27] = Apparent clearance with respect to oral bioavailability in human at 150 mg, po co-treated with ritonavir 200 mg tid for 1 day, 300 mg bid for next 6 days, 400 mg bid upto 17 day of study measured after 48 hrs; format: ADME, organism-based; conditions: in vivo
[28] = AUC (0 to infinity) in healthy human plasma at 150 mg, po co-treated with ritonavir 200 mg tid for 1 day, 300 mg bid for next 6 days, 400 mg bid upto 17 day of study measured after 48 hrs; format: ADME, organism-based; design: dose 150 mg, time infinity, route oral
[29] = Apparent clearance with respect to oral bioavailability in human at 150 mg, po co-treated with ritonavir 200 mg tid for 1 day, 300 mg bid for next 2 days measured after 48 hrs; format: ADME, organism-based; conditions: in vivo
[30] = AUC (0 to infinity) in healthy human plasma at 150 mg, po co-treated with ritonavir 200 mg tid for 1 day, 300 mg bid for next 2 days measured after 48 hrs; format: ADME, organism-based; design: dose 150 mg, route oral, time infinity
[31] = test system: Homo sapiens; assay: Tmax in healthy human plasma assessed as (S,S)-hydroxybupropion level at 150 mg, po co-treated with ritonavir 200 mg tid for 1 day, 300 mg bid for next 2 days measured after 48 hrs by high-performance liquid chromatography-tandem mass spectrometry; format: ADME, organism-based; conditions: in vivo
[32] = test system: Homo sapiens; assay: as §1, with “Tmax in healthy human plasma assessed as (S,S)-hydroxybupropion” for “(R,R)-hydroxybupropion”; format: ADME, organism-based; conditions: in vivo
[33] = clinical; conditions: human, plasma, po
[34] = clinical; conditions: human, plasma, po; remark: listed apart in the source
[35] = clinical; conditions: human, plasma, po; remark: listed apart in the source
[36] = clinical; conditions: human, plasma, po; remark: listed apart in the source

CC(NC(C)(C)C)C(=O)c1cccc(Cl)c1 (racemic) [BUPROPION]
AUC [1]: 11330 ng·h/mL | AUC [2]: 7560 ng·h/mL | Tmax [3]: 3.6 h | Tmax [4]: 3.4 h | AUC [5]: 8470 ng·h/mL | AUC [6]: 6100 ng·h/mL | AUC [7]: 8120 ng·h/mL | AUC [8]: 5829 ng·h/mL | AUC [9]: 10950 ng·h/mL | AUC [10]: 7330 ng·h/mL | Tmax [11]: 3.8 h | Tmax [12]: 3.5 h | AUC [13]: 356 ng·h/mL | AUC [14]: 274 ng·h/mL | AUC [15]: 404 ng·h/mL | AUC [16]: 303 ng·h/mL | AUC at 336 h [17]: 57 ng·h/mL | AUC at 336 h [18]: 50 ng·h/mL | CL renal [19]: 20 mL/min | CL renal [20]: 21 mL/min | CL_renal [21]: 143 mL/min | CL_renal [22]: 183 mL/min | CL_renal [23]: 172 mL/min | CL_renal [24]: 217 mL/min | CL_renal [25]: 96 mL/min | CL_renal [26]: 134 mL/min | CL/F [27]: 3240 mL/min | AUC(0-inf) [28]: 1030 ng·h/mL | CL/F [29]: 2470 mL/min | AUC(0-inf) [30]: 1290 ng·h/mL | Tmax [31]: 1.7 h | Tmax [32]: 1.5 h | half-life [33]: 17.8 h | half-life [34]: 16.8 h | Cmax [35]: 267 ng/mL | Cmax [36]: 345 ng/mL
